This note sets out measurements from patent US9371320B2, “Heterocyclic compound” (TAKEDA PHARMACEUTICAL COMPANY LIMITED, priority 2012, dated 2016).

One test has as its target T1, Tyk2 (Homo sapiens, UniProt P29597).
T1 construct: purchased Invitrogen
The experiment in a line: Tyk2 enzyme inhibition test (LANCE method). The format is biochemical. As to conditions: for inhibition at 1 µM / Inhibitory rate (%) Tyk2 1 μM: test compound 1 μM; for inhibition at 1 µM: read-out: Inhibitory rate (%) Tyk2 1 μM. In a few lines:
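Recombinant Tyk2 (375 ng/mL stock) with ULight-JAK1 peptide (300 nM stock) and ATP (30 μM stock) in HEPES pH 7.5/MgCl2/EGTA/DTT buffer, 1 h at room temperature. Stopped with EDTA plus Eu-anti-phosphotyrosine antibody; TR-FRET read at 665 nm after 1 h. No-enzyme wells define 100% inhibition.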

The next test concerns the target T2, JAK1 (Homo sapiens, UniProt P23458).
T2 construct: purchased Invitrogen
The experiment in a line: JAK1 enzyme inhibition test (LANCE method). The class given is biochemical. The conditions noted are these: for inhibition at 1 µM: read-out: Inhibitory rate (%) JAK1 1 μM; for inhibition at 10 µM: read-out: Inhibitory rate (%) JAK1 10 μM. In a few lines:
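TR-FRET (LANCE) kinase assay using JAK1 at 187.5 ng/mL, ULight-JAK1 peptide at 300 nM and ATP at 150 μM, given as solution concentrations before mixing. Buffer was 50 mM HEPES pH 7.5 with 10 mM MgCl2 and 2 mM DTT, and the reaction ran 1 h at room temperature. Eu anti-phosphotyrosine signal at 665 nm was expressed relative to a no-enzyme well, taken as 100% inhibition.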

[1] abbreviates: test compound 10 μM (Ex. 182-220), beside Tyk2 1 μM.

Each structure is given as a SMILES string. Read-outs that look alike come from different tables or passages of the source.

T1 sequence (P29597 whole entry): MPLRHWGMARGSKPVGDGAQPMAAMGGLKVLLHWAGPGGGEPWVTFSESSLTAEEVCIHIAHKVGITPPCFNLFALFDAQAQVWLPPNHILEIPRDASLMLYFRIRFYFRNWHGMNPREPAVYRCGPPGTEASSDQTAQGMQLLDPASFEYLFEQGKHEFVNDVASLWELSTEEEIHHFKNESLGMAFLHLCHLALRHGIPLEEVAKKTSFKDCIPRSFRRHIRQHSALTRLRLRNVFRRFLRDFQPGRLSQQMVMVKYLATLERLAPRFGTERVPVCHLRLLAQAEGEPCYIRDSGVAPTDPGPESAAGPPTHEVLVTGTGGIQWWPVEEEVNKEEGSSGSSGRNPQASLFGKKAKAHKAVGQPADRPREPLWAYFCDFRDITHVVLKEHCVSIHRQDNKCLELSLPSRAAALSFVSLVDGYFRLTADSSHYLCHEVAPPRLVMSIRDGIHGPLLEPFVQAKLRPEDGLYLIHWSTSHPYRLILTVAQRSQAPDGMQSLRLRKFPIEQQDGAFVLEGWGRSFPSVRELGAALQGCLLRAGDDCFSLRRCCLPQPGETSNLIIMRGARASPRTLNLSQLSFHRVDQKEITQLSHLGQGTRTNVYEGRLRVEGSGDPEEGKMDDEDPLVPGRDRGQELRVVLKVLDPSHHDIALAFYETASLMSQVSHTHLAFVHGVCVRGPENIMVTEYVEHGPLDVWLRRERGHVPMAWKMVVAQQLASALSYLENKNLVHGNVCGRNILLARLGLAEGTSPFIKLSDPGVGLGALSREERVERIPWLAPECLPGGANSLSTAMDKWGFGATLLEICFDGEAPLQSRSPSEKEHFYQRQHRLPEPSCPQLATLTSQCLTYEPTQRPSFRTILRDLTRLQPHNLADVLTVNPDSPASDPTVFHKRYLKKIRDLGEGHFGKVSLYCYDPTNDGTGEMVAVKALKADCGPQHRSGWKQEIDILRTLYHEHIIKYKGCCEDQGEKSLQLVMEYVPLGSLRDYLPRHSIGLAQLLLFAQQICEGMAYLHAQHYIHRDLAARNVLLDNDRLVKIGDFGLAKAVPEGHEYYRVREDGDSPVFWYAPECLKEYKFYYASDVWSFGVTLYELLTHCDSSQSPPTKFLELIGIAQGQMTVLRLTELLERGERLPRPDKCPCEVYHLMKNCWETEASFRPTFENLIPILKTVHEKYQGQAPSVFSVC
T2 sequence (P23458 whole entry): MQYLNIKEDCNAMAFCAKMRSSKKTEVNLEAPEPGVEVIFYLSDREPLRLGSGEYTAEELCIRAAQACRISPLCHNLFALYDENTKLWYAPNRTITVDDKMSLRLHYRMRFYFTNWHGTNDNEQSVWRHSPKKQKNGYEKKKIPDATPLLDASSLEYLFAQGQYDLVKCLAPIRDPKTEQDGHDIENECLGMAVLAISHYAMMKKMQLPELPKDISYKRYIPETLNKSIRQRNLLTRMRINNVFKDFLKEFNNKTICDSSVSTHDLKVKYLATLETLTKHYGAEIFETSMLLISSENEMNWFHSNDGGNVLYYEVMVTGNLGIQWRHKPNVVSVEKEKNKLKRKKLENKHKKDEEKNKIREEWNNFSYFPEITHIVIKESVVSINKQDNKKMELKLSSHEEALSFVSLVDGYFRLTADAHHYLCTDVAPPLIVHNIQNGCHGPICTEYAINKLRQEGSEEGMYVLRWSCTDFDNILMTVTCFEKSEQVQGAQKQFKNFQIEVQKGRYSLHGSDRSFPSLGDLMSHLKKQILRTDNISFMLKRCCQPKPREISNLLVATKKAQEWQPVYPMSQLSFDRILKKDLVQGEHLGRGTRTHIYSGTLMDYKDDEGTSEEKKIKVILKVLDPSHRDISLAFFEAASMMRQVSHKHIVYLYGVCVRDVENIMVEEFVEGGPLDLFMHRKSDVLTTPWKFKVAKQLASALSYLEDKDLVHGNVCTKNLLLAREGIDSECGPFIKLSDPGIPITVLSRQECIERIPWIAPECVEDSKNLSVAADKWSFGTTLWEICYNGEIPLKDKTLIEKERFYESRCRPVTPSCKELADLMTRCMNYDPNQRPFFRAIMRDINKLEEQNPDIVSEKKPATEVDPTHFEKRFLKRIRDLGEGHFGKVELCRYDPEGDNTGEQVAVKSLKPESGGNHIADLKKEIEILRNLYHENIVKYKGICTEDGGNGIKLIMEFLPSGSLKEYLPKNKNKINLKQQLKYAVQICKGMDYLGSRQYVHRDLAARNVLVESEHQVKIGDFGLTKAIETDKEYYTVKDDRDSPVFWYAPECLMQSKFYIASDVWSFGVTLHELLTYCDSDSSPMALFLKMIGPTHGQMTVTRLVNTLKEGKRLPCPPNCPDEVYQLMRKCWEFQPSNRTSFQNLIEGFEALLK

In the case of `NS(=O)(=O)c1ccc(-c2cn(C3CCOC3)c3cc[nH]c(=O)c23)cc1` (stereo not drawn) [Example 18, 4-(4-oxo-1-(tetrahydrofuran-3-yl)-4,5-dihydro-1H-pyrrolo[3,2-c]pyridin-3-yl)benzenesulfonamide], the inhibition at 1 µM is 80% at Tyk2 and 93% on JAK1 (test compound 1 μM).
`CS(=O)(=O)N1CCN(c2ccc(-c3nn(-c4c(F)cccc4F)c4cc[nH]c(=O)c34)cc2)CC1` [Example 311, 1-(2,6-difluorophenyl)-3-(4-(4-(methylsulfonyl)piperazin-1-yl)phenyl)-1,5-dihydro-4H-pyrazolo[4,3-c]pyridin-4-one]: the inhibition at 1 µM worked out at 99% at Tyk2 and 95% on JAK1 (test compound 1 μM).
Consider `O=C1OCCN1Cc1ccc(-c2nn(-c3c(F)cccc3F)c3c(Cl)c[nH]c(=O)c23)cc1` [Example 186, 7-chloro-1-(2,6-difluorophenyl)-3-(4-((2-oxo-1,3-oxazolidin-3-yl)methyl)phenyl)-1,5-dihydro-4H-pyrazolo[4,3-c]pyridin-4-one], for which, on Tyk2, the inhibition at 1 µM amounted to 99%. In addition, the inhibition at 10 µM at JAK1 (setting [1]) is 82%.
Consider `Cn1cc(NC(=O)c2cc(-c3nn(-c4c(F)cccc4F)c4c(Cl)c[nH]c(=O)c34)cs2)cn1` [Example 166, 4-(7-chloro-1-(2,6-difluorophenyl)-4-oxo-4,5-dihydro-1H-pyrazolo[4,3-c]pyridin-3-yl)-N-(1-methyl-1H-pyrazol-4-yl)thiophene-2-carboxamide], for which the inhibition at 1 µM on Tyk2 was 100%; on JAK1 (test compound 1 μM), 98%.
Taken in the same sequence, the figures for `O=c1[nH]ccc2c1c(C1=CCOCC1)nn2C1CCCC1` [Example 42, 1-cyclopentyl-3-(3,6-dihydro-2H-pyran-4-yl)-1,5-dihydro-4H-pyrazolo[4,3-c]pyridin-4-one] were 51% and 53%.
Regarding `CNC(=O)Cc1ccc(F)c(-c2nn(-c3c(F)cccc3F)c3cc[nH]c(=O)c23)c1` [Example 293, 2-(3-(1-(2,6-difluorophenyl)-4-oxo-4,5-dihydro-1H-pyrazolo[4,3-c]pyridin-3-yl)-4-fluorophenyl)-N-methylacetamide], the inhibition at 10 µM stood at 22% at Tyk2 (test compound 10 μM, read-out: Inhibitory rate (%) Tyk2 10 μM) and 0% at JAK1 (test compound 10 μM).
`Cn1cc(-c2cn(C3CCCC3)c3c(C#N)c[nH]c(=O)c23)cn1` [Example 131, 1-cyclopentyl-3-(1-methyl-1H-pyrazol-4-yl)-4-oxo-4,5-dihydro-1H-pyrrolo[3,2-c]pyridine-7-carbonitrile]: the inhibition at 1 µM on Tyk2 was 99%; at JAK1 (test compound 1 μM), 97%.
Regarding `NC(=O)Cn1cc(-c2nn(-c3c(F)cccc3F)c3c(Cl)c[nH]c(=O)c23)cn1` [Example 190, 2-(4-(7-chloro-1-(2,6-difluorophenyl)-4-oxo-4,5-dihydro-1H-pyrazolo[4,3-c]pyridin-3-yl)-1H-pyrazol-1-yl)acetamide], the inhibition at 1 µM on Tyk2 is 99%. The inhibition at 10 µM on JAK1 (setting [1]) was determined as 81%.
As for `CC(C)(C)NC(=O)c1cc(-c2cn(C3CCCC3)c3c(C#N)c[nH]c(=O)c23)cs1` [Example 123, N-tert-butyl-4-(7-cyano-1-cyclopentyl-4-oxo-4,5-dihydro-1H-pyrrolo[3,2-c]pyridin-3-yl)thiophene-2-carboxamide], the inhibition at 1 µM at Tyk2 and on JAK1 (test compound 1 μM) was 99% each time.
Take `NC(=O)c1cc(-c2nn(C3CCC(O)CC3)c3cc[nH]c(=O)c23)cs1` (stereo not drawn) [Example 171, 4-(1-(4-hydroxycyclohexyl)-4-oxo-4,5-dihydro-1H-pyrazolo[4,3-c]pyridin-3-yl)thiophene-2-carboxamide]: the inhibition at 1 µM on Tyk2 and at JAK1 (test compound 1 μM) was 100% throughout.
On to `O=c1[nH]cc(Cl)c2c1c(-c1ccc(CN3CCOCC3)cc1)nn2-c1c(F)cccc1F` [Example 185, 7-chloro-1-(2,6-difluorophenyl)-3-(4-(morpholin-4-ylmethyl)phenyl)-1,5-dihydro-4H-pyrazolo[4,3-c]pyridin-4-one], for which the inhibition at 1 µM on Tyk2 was 99%. At JAK1 (setting [1]), the inhibition at 10 µM amounted to 72%.
`O=c1[nH]ccc2c1c(-c1csc(N3CCOCC3)c1)nn2-c1c(F)cccc1F` [Example 234, 1-(2,6-difluorophenyl)-3-(5-(morpholin-4-yl)-3-thienyl)-1,5-dihydro-4H-pyrazolo[4,3-c]pyridin-4-one]: the inhibition at 1 µM at Tyk2 and at JAK1 (test compound 1 μM) was 99% in each case.
Turning to `NC(=O)c1cc(F)cc(-c2nn(-c3c(F)cccc3F)c3cc[nH]c(=O)c23)c1` [Example 268, 3-(1-(2,6-difluorophenyl)-4-oxo-4,5-dihydro-1H-pyrazolo[4,3-c]pyridin-3-yl)-5-fluorobenzamide], the results for the inhibition at 1 µM at Tyk2 and on JAK1 (test compound 1 μM) were 33% and 4%, respectively.
In the case of `NS(=O)(=O)c1ccc(-c2nn(C3CCCC3)c3cc[nH]c(=O)c23)cc1` [Example 92, 4-(1-cyclopentyl-4-oxo-4,5-dihydro-1H-pyrazolo[4,3-c]pyridin-3-yl)benzenesulfonamide], the inhibition at 1 µM at Tyk2 was 99%; at JAK1 (test compound 1 μM) it was 100%.
Turning to `O=c1[nH]ccc2c1c(Nc1ccccc1)nn2C1CCCC1` [Example 283, 3-anilino-1-cyclopentyl-1,5-dihydro-4H-pyrazolo[4,3-c]pyridin-4-one], the inhibition at 1 µM is 93% on Tyk2 and 98% on JAK1 (test compound 1 μM).
Taken in the same sequence, the figures for `O=C1NCCN1c1ccc(-c2nn(-c3c(F)cccc3F)c3c(Cl)c[nH]c(=O)c23)cc1` [Example 225, 7-chloro-1-(2,6-difluorophenyl)-3-(4-(2-oxoimidazolidin-1-yl)phenyl)-1,5-dihydro-4H-pyrazolo[4,3-c]pyridin-4-one] were 99% and 58%.
On to `CC(=O)Nc1cccc(-c2cn(C3CCCC3)c3c(C#N)c[nH]c(=O)c23)c1` [Example 130, N-(3-(7-cyano-1-cyclopentyl-4-oxo-4,5-dihydro-1H-pyrrolo[3,2-c]pyridin-3-yl)phenyl)acetamide], for which the figures for the inhibition at 1 µM at Tyk2 and at JAK1 (test compound 1 μM) were 96% and 76%, respectively.
Turning to `NS(=O)(=O)c1ccc(-c2nn(C3CCOC3)c3cc[nH]c(=O)c23)cc1` (stereo not drawn) [Example 83, 4-(4-oxo-1-(tetrahydrofuran-3-yl)-4,5-dihydro-1H-pyrazolo[4,3-c]pyridin-3-yl)benzenesulfonamide], the “Inhibitory rate (%) Tyk2 1 μM” value on Tyk2 is given as 89%. Further, the “Inhibitory rate (%) JAK1 1 μM” value at JAK1 (test compound 1 μM) is recorded as 97%.
In the case of `CN1CCN(c2ccc(-c3nn(-c4c(F)cccc4F)c4cc[nH]c(=O)c34)cc2)C1=O` [Example 240, 1-(2,6-difluorophenyl)-3-(4-(3-methyl-2-oxoimidazolidin-1-yl)phenyl)-1,5-dihydro-4H-pyrazolo[4,3-c]pyridin-4-one], the inhibition at 1 µM was found to be 99% at Tyk2 and 88% at JAK1 (test compound 1 μM).
The like results for `NS(=O)(=O)c1ccc(-c2nn(C3CCC(F)(F)CC3)c3cc[nH]c(=O)c23)cc1` [Example 290, 4-(1-(4,4-difluorocyclohexyl)-4-oxo-4,5-dihydro-1H-pyrazolo[4,3-c]pyridin-3-yl)benzenesulfonamide] were, in that order, 95% and 98%.
As for `NC(=O)c1cccc(-c2nn(-c3c(F)cccc3F)c3c(Cl)c[nH]c(=O)c23)c1` [Example 254, 3-(7-chloro-1-(2,6-difluorophenyl)-4-oxo-4,5-dihydro-1H-pyrazolo[4,3-c]pyridin-3-yl)benzamide], the values for the inhibition at 1 µM at Tyk2 and at JAK1 (test compound 1 μM) were 98% and 65%, respectively.
Taken in the same sequence, the figures for `N#Cc1c[nH]c(=O)c2c(-c3ccccn3)cn(C3CCCC3)c12` [Example 132, 1-cyclopentyl-4-oxo-3-(pyridin-2-yl)-4,5-dihydro-1H-pyrrolo[3,2-c]pyridine-7-carbonitrile] were 74% and 27%.
The like results for `O=c1[nH]ccc2c(-c3ccccc3)nn(-c3ccsc3)c12` [Example 11, 3-phenyl-1-(3-thienyl)-1,6-dihydro-7H-pyrazolo[3,4-c]pyridin-7-one] were, in that order, 66% and 55%.
The like results for `CNC(=O)c1cc(-c2cn(C3CCCC3)c3c(C(=O)NC)c[nH]c(=O)c23)cs1` [Example 63, 1-cyclopentyl-N-methyl-3-(5-(methylcarbamoyl)-3-thienyl)-4-oxo-4,5-dihydro-1H-pyrrolo[3,2-c]pyridine-7-carboxamide] were, in that order, 51% and 59%.
Consider `N#CCc1ccc(-c2cn(C3CCCC3)c3c(C#N)c[nH]c(=O)c23)cc1` [Example 96, 3-(4-(cyanomethyl)phenyl)-1-cyclopentyl-4-oxo-4,5-dihydro-1H-pyrrolo[3,2-c]pyridine-7-carbonitrile], for which the inhibition at 1 µM on Tyk2 is 99%; on JAK1 (test compound 1 μM) it was 94%.
In the case of `NS(=O)(=O)c1ccc(-c2nn(C3CCOC3)c3cc[nH]c(=O)c23)cc1` (stereo not drawn) [Example 82, 4-(4-oxo-1-(tetrahydrofuran-3-yl)-4,5-dihydro-1H-pyrazolo[4,3-c]pyridin-3-yl)benzenesulfonamide], the “Inhibitory rate (%) Tyk2 1 μM” value on Tyk2 is listed as 78%. In addition, the inhibition at 1 µM at JAK1 (test compound 1 μM) was 95%.
As for `N#CCc1cccc(-c2nn(-c3c(F)cccc3F)c3c(Br)c[nH]c(=O)c23)c1` [Example 146, (3-(7-bromo-1-(2,6-difluorophenyl)-4-oxo-4,5-dihydro-1H-pyrazolo[4,3-c]pyridin-3-yl)phenyl)acetonitrile], the values for the inhibition at 1 µM at Tyk2 and at JAK1 (test compound 1 μM) were 98% and 69%, respectively.
